Test results as given in patent US6645726B1, “Canine growth hormone secretagogue receptor” (Merck & Co., Inc., priority 1998, dated 2003).

How the values were obtained:
[1] = biological target: T1, cloned canine GHSR (Canis lupus familiaris, UniProt A5HKU8); assay: [35S]-MK-677 competition binding, cloned canine GHSR membranes; settings: competition with 35S-MK-677, crude membranes of transfected COS-7 or HEK-293 cells, 20° C., 1 hr
T1 construct: full-length open reading frame placed in the mammalian expression vector pcDNA-3; expressed in transfected cells; host or cells: COS-7 or HEK-293 (crude membranes)
Description: Expression of the canine -GHSR was monitored using a [^35S]-MK-677 binding assay conducted on cells transfected with a canine GHSR expression plasmid (full-length open reading frame placed in the mammalian expression vector pcDNA-3). Mammalian cells (COS-7, HEK-293) were transfected with GHSR expression plasmids using Lipofectamine (GIBCO-BRL; Hawley-Nelson, 1993, Focus 15:73). Transfections were performed in 60 mm dishes on 80% confluent cells (approximately 4×10^5cells) with 8 μg of Lipofectamine and 32 μg of GHSR plasmid DNA.
Binding of ^35S-MK-677 to crude membranes prepared from COS-7 or HEK-293 cells transfected with GHSR expression plasmids was conducted. Crude cell membranes from COS-7 transfectants were prepared on ice, 48 hrs post-transfection. Each 60 mm dish was washed twice with 3 ml of PBS, once with 1 ml homogenization buffer (50 mM Tris-HCl (pH 7.4), 5 mM MgCl2, 2.5 mM EDTA, 30 μg/ml bacitracin). 0.5 ml of homogenization buffer was added to each dish, cells were removed by scraping and then homogenized using a POLYTRON device (Brinkmann, Syosset, N.Y.; 3 bursts of 10 seconds at setting 4). […] After application of the membrane suspension to the filter, the filters were washed 3 times with 3 ml each of ice cold 50 mM Tris-HCl (pH 7.4), 10 mM MgCl2, 2.5 mM-EDTA, and 0.015% Triton X-100, and the bound radioactivity on the filters was quantitated by scintillation counting.

[2] = biological target: T2, native canine pituitary GHSR (Canis lupus familiaris, UniProt A5HKU8); assay: [35S]-MK-677 competition binding, native canine pituitary GHSR; settings: comparison value
T2 construct: native canine pituitary GHSR; from tissue; host or cells: canine pituitary
T2 sequence (A5HKU8 1-349): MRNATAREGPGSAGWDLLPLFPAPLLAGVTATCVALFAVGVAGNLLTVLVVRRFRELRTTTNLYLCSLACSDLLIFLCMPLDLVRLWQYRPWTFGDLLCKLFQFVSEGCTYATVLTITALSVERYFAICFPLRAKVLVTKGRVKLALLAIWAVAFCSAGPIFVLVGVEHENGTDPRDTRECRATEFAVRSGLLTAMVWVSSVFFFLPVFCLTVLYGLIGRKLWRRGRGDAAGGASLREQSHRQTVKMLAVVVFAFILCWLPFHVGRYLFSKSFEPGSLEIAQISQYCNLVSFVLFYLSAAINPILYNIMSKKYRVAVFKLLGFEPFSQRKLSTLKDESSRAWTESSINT

T1 sequence (A5HKU8 1-349): as above

With `CC(C)(N)C(=O)N[C@H](COCc1ccccc1)C(=O)N1CCC2(CC1)CN(S(C)(=O)=O)c1ccccc12` [MK-677] the IC50 [1] was 2.2 nM and the IC50 [2] was 1 nM.
